PubChem BioAssay (NCI)
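Each compound was tested at five concentrations against cells in 96-well plates for 48 hours. TGI: total growth inhibition.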

What was measured:
Test in all cases: NCI-60 cell line screen, 48 h
[1] = system: 786-0 renal
[2] = system: A498 renal
[3] = system: A549 NSCLC
[4] = system: ACHN renal
[5] = system: BT-549 breast
[6] = system: CAKI-1 renal
[7] = system: CCRF-CEM leukemia
[8] = system: COLO 205 colon
[9] = system: DLD-1 colon
[10] = system: DMS 114 small cell lung
[11] = system: DMS 273 small cell lung
[12] = system: DU-145 prostate
[13] = system: EKVX NSCLC
[14] = system: HCC-2998 colon
[15] = system: HCT-116 colon
[16] = system: HCT-15 colon
[17] = system: HL-60(TB) leukemia
[18] = system: HOP-62 NSCLC
[19] = system: HOP-92 NSCLC
[20] = system: HS 578T breast
[21] = system: HT29 colon
[22] = system: IGROV1 ovarian
[23] = system: K-562 leukemia
[24] = system: KM12 colon
[25] = system: KM20L2 colon
[26] = system: LOX IMVI melanoma
[27] = system: LXFL 529 NSCLC
[28] = system: M14 melanoma
[29] = system: M19-MEL melanoma
[30] = system: MALME-3M melanoma
[31] = system: MCF7 breast
[32] = system: MDA-MB-231 breast
[33] = system: MDA-MB-435
[34] = system: MDA-N
[35] = system: MOLT-4 leukemia
[36] = system: NCI-H226 lung
[37] = system: NCI-H23 lung
[38] = system: NCI-H460 lung
[39] = system: NCI-H522 lung
[40] = system: NCI/ADR-RES ovarian
[41] = system: OVCAR-3 ovarian
[42] = system: OVCAR-4 ovarian
[43] = system: OVCAR-5 ovarian
[44] = system: OVCAR-8 ovarian
[45] = system: PC-3 prostate
[46] = system: RPMI-8226 leukemia
[47] = system: RXF 393 renal
[48] = system: RXF-631 renal
[49] = system: SF-268 CNS
[50] = system: SF-295 CNS
[51] = system: SF-539 CNS
[52] = system: SK-MEL-2 melanoma
[53] = system: SK-MEL-28 melanoma
[54] = system: SK-MEL-5 melanoma
[55] = system: SK-OV-3 ovarian
[56] = system: SN12C renal
[57] = system: SNB-19 CNS
[58] = system: SNB-75 CNS
[59] = system: SNB-78 CNS
[60] = system: SR leukemia
[61] = system: SW-620 colon
[62] = system: T-47D breast
[63] = system: TK-10 renal
[64] = system: U251 CNS
[65] = system: UACC-257 melanoma
[66] = system: UACC-62 melanoma
[67] = system: UO-31 renal
[68] = system: XF 498 CNS

Compound: O=C1C=CC(=O)c2c(O)c(CO)c(CO)c(O)c21
- TGI [1]: 723 nM
- TGI [2]: 3640 nM
- TGI [3]: 5580 nM
- TGI [4]: 1050 nM
- TGI [5]: 593 nM
- TGI [6]: 875 nM
- TGI [7]: 195 nM
- TGI [8]: 171 nM
- TGI [9]: 202 nM
- TGI [10]: 878 nM
- TGI [11]: 1420 nM
- TGI [12]: 3270 nM
- TGI [13]: 5030 nM
- TGI [14]: 4780 nM
- TGI [15]: 662 nM
- TGI [16]: 490 nM
- TGI [17]: 405 nM
- TGI [18]: 2400 nM
- TGI [19]: 944 nM
- TGI [20]: 4710 nM
- TGI [21]: 741 nM
- TGI [22]: 4140 nM
- TGI [23]: 13400 nM
- TGI [24]: 3190 nM
- TGI [25]: 2250 nM
- TGI [26]: 674 nM
- TGI [27]: 351 nM
- TGI [28]: 411 nM
- TGI [29]: 216 nM
- TGI [30]: 467 nM
- TGI [31]: 337 nM
- TGI [32]: 2740 nM
- TGI [33]: 1660 nM
- TGI [34]: 736 nM
- TGI [35]: 188 nM
- TGI [36]: 5030 nM
- TGI [37]: 1300 nM
- TGI [38]: 2790 nM
- TGI [39]: 239 nM
- TGI [40]: 8200 nM
- TGI [41]: 1710 nM
- TGI [42]: 581 nM
- TGI [43]: 3540 nM
- TGI [44]: 2040 nM
- TGI [45]: 4370 nM
- TGI [46]: 814 nM
- TGI [47]: 939 nM
- TGI [48]: 2550 nM
- TGI [49]: 3930 nM
- TGI [50]: 3190 nM
- TGI [51]: 1710 nM
- TGI [52]: 2580 nM
- TGI [53]: 960 nM
- TGI [54]: 1120 nM
- TGI [55]: 18000 nM
- TGI [56]: 774 nM
- TGI [57]: 6130 nM
- TGI [58]: 1640 nM
- TGI [59]: 3520 nM
- TGI [60]: 481 nM
- TGI [61]: 288 nM
- TGI [62]: 1520 nM
- TGI [63]: 842 nM
- TGI [64]: 5350 nM
- TGI [65]: 883 nM
- TGI [66]: 1880 nM
- TGI [67]: 2200 nM
- TGI [68]: 665 nM

Compound: Cc1cc2c(c(C(N)=O)c1C)-c1cccc(Cl)c1C2=O
- TGI [1]: > 100000 nM
- TGI [2]: > 100000 nM
- TGI [3]: > 100000 nM
- TGI [4]: > 100000 nM
- TGI [7]: > 100000 nM
- TGI [8]: > 100000 nM
- TGI [9]: > 100000 nM
- TGI [10]: > 100000 nM
- TGI [11]: > 100000 nM
- TGI [13]: > 100000 nM
- TGI [14]: > 100000 nM
- TGI [15]: > 100000 nM
- TGI [16]: > 100000 nM
- TGI [17]: > 100000 nM
- TGI [18]: > 100000 nM
- TGI [19]: > 100000 nM
- TGI [21]: > 100000 nM
- TGI [22]: > 100000 nM
- TGI [23]: > 100000 nM
- TGI [24]: > 100000 nM
- TGI [25]: > 100000 nM
- TGI [26]: > 100000 nM
- TGI [27]: > 100000 nM
- TGI [28]: > 100000 nM
- TGI [30]: > 100000 nM
- TGI [35]: > 100000 nM
- TGI [37]: > 100000 nM
- TGI [38]: > 100000 nM
- TGI [39]: > 100000 nM
- TGI [41]: > 100000 nM
- TGI [42]: > 100000 nM
- TGI [43]: > 100000 nM
- TGI [44]: > 100000 nM
- TGI [46]: > 100000 nM
- TGI [48]: > 100000 nM
- TGI [49]: > 100000 nM
- TGI [50]: > 100000 nM
- TGI [51]: > 100000 nM
- TGI [52]: > 100000 nM
- TGI [53]: > 100000 nM
- TGI [54]: > 100000 nM
- TGI [55]: > 100000 nM
- TGI [56]: > 100000 nM
- TGI [57]: > 100000 nM
- TGI [58]: > 100000 nM
- TGI [59]: > 100000 nM
- TGI [61]: > 100000 nM
- TGI [63]: > 100000 nM
- TGI [64]: > 100000 nM
- TGI [65]: > 100000 nM
- TGI [66]: > 100000 nM
- TGI [67]: > 100000 nM
- TGI [68]: > 100000 nM
